Reference: ChEMBL document CHEMBL1201862, “PubChem BioAssay data set” (2004)
Active and inactive are the calls of the source.

Key:
[1] = target: T1, Rac GTPase-activating protein 1 (Homo sapiens, UniProt Q9H0H5); test: blockers of MgcRacGAP-driven Rac1 GTP hydrolysis – biochemical, ADP Hunter fluorescence, primary and confirmatory, confirmation (AID 624330); format: functional
T1 sequence (Q9H0H5 whole entry): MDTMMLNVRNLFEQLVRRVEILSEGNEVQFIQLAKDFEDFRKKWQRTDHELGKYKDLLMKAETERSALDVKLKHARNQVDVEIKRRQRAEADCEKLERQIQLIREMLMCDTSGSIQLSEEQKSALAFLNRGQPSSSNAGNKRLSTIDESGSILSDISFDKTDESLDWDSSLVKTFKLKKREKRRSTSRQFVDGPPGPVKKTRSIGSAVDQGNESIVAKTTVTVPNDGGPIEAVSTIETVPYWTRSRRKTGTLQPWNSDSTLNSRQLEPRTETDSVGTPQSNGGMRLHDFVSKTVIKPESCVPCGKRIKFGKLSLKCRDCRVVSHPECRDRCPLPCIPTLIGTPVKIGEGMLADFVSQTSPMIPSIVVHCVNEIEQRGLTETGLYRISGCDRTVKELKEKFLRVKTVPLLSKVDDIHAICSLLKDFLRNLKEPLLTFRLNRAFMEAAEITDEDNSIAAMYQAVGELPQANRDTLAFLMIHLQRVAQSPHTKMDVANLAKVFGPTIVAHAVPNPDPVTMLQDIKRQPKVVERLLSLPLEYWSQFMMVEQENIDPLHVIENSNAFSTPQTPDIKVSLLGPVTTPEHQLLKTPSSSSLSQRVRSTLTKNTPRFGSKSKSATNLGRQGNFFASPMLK

H9c2 = test: cells; format: functional, cell-based; details: Rattus norvegicus, H9c2, Myocardium;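 note: confirmatory concentration-response retest of ultra-high-throughput screening hits for modulation of myocardial damage; cell death induced by hydrogen peroxide oxidative stress; compound pretreatment for 60 min then peroxide exposure for 2 h; potency is for protecting the cells against peroxide damage rather than for killing them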
Protein RecA = target: T2, Protein RecA (Mycobacterium tuberculosis, UniProt P9WHJ3); test: Fluorescence Cell-Free Homogeneous Dose Retest to Identify Inhibitors of RecA-Intein Splicing Activity. [Related pubchem assays (depositor defined):AID2097, AID2223, AID489010, AID492950]; format: functional
T2 sequence (P9WHJ3 whole entry): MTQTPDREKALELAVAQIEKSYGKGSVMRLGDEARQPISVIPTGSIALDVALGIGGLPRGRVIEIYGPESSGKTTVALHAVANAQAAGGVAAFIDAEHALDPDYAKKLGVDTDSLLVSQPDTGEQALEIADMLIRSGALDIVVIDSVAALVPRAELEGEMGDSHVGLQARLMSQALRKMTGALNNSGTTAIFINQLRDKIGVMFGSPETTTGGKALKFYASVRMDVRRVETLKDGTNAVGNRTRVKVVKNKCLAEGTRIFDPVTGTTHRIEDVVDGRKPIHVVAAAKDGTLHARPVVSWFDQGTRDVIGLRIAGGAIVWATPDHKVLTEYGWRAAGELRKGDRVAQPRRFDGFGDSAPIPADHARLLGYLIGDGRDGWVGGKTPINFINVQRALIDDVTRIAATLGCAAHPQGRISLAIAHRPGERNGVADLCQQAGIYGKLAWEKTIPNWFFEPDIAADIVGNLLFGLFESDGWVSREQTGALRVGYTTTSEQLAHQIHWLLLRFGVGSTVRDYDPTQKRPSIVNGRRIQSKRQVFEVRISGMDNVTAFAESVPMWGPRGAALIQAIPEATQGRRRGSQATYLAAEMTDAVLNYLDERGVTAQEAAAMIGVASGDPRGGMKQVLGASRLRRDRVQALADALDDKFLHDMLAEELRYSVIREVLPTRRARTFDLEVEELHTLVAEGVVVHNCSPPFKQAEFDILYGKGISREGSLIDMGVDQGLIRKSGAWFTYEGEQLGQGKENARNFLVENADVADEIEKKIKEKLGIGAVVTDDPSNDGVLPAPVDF

[2] = target: T3, Replicative DNA helicase DnaB (Mycobacterium tuberculosis, UniProt P9WMR3); test: DnaB intein splicing inhibitors, dose response, biochemical, cell-free fluorescence (AID 449749); format: functional
T3 sequence (P9WMR3 whole entry): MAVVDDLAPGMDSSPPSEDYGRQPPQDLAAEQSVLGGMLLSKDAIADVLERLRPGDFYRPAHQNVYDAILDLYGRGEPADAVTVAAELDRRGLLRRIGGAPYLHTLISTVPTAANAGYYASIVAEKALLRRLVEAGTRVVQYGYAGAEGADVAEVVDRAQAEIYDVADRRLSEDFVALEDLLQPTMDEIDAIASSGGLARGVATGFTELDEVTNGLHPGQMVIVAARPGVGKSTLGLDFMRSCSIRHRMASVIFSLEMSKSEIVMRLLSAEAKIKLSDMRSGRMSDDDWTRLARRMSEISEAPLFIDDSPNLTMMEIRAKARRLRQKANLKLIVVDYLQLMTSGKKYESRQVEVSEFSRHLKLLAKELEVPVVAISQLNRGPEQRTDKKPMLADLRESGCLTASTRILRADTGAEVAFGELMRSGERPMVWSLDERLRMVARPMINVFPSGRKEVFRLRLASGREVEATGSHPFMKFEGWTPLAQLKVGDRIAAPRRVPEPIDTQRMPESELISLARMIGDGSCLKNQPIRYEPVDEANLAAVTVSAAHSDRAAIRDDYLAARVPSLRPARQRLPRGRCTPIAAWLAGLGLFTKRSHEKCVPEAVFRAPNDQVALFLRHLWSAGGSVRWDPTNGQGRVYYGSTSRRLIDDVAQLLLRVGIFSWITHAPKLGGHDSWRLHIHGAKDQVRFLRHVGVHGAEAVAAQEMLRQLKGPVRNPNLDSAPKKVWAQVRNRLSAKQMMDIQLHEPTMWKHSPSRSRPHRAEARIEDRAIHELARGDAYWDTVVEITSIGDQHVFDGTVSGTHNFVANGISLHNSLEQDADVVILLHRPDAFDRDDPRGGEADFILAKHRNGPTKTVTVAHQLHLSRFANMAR

cells = format: functional
[3] = viability of uninfected HEp-2 cells – cell-based, HTS, cytotoxicity control for RSV inhibitor project, dose response (AID 2410); format: functional; details: human respiratory syncytial virus
Vero = test: cells; format: functional; details: Chlorocebus sabaeus
[4] = target: T4, Heat shock factor protein 1 (Mus musculus, UniProt P38532); test: enhancement of HSF1-driven luciferase signal – cell-based, NIH3T3, luminescence, dose retest, confirmation (AID 435004); format: functional;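 note: stress induced by proteasome inhibitor MG132 added 30 min after compound; luciferase reporter driven by HSF1 response element in NIH3T3 cells; actives raise luminescence as potentiators of the MG132 stress response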
T4 sequence (P38532 whole entry): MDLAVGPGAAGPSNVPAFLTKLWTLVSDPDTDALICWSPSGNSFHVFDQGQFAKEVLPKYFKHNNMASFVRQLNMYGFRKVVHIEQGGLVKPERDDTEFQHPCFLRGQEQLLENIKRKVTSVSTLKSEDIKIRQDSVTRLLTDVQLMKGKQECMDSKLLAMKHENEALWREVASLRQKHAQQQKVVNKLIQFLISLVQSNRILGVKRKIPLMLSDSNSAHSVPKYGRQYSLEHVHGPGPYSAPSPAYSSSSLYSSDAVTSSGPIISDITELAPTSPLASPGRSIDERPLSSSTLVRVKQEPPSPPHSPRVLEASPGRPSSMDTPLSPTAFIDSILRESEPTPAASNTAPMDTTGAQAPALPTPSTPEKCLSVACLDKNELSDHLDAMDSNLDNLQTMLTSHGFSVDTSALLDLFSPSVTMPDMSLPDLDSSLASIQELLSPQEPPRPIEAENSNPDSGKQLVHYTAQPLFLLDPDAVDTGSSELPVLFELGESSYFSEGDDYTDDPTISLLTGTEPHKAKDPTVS

Streptococcus = test: GAS UMAA2166 growth inhibition – luminescence, BacTiterGlo, counter-screen for streptokinase expression inhibitor project, dose response (AID 1915); format: functional, organism-based;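 note: potency for reduction of bacterial viability or growth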
[5] = system: Streptococcus sp. 'group A'; test: Streptococcus pyogenes SK(-)GAS viability under kanamycin – luminescence, BacTiterGlo, confirmation, counter-screen for streptokinase expression inhibitor project, dose response (AID 1900); format: functional, organism-based
[6] = target: FAD-linked sulfhydryl oxidase ALR (Homo sapiens, UniProt P55789); test: ALR-catalysed DTT oxidation blockers – biochemical, H2O2 detection, luminescence, cherry-pick, dose response (AID 493248)
Sequence of FAD-linked sulfhydryl oxidase ALR (P55789 whole entry): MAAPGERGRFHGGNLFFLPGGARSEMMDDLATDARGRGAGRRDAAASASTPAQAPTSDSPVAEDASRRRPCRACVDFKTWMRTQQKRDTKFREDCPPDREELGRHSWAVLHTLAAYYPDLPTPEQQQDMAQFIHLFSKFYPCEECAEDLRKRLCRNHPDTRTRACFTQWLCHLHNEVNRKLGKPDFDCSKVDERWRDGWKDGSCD

SMILES: O=C(c1ccco1)N1CCN(Cc2cccc([N+](=O)[O-])c2)CC1
- IC50 [1]: 127 µM (active)

SMILES: Cc1ccccc1C1c2[nH]c3ccccc3c2C[C@H]2C(=O)N(c3ccccc3C(=O)NCCCN3CCOCC3)C(=O)N12 (stereo not given in full)
- IC50 (H9c2): 15.3 µM (active)

SMILES: O=C(CSc1ncnc2c1nnn2Cc1ccc(F)cc1)NCC1CCCO1 (stereo not given)
- EC50 (Protein RecA): 10.2 µM (active)
- AC50 [2]: 14.3 µM (active)

SMILES: CCCC(=O)Nc1nc2ccc(NC(=O)c3ccc(Br)o3)cc2s1
- IC50 (H9c2): > 79 µM (inactive)

SMILES: CCCc1cc(C(=O)Nc2ccccc2SC)no1
- IC50 (cells): 10.5 µM (active)

SMILES: CCS(=O)(=O)C1=NN2C(=N)/C(=C\c3ccc(OC(=O)c4ccco4)cc3)C(=O)N=C2S1
- EC50 (Protein RecA): 19.4 µM (active)
- AC50 [2]: > 380 µM (inactive)

SMILES: O=C1CCCC2=C1C(c1ccc(Cl)cc1)n1c(s/c(=C\c3ccc4ccncc4c3)c1=O)=N2 (stereo not given)
- CC50 [3]: 31.8 µM (active)
- CC50 (Vero): > 25 µM (active)
- EC50 [4]: 146 µM (active)

SMILES: COC(=O)C1=C(C)N(CCc2ccc(OC)cc2)C(=O)C1
- IC50 (H9c2): > 79 µM (inactive)

SMILES: CCOC(=O)C1CCN(c2cc3c(cc2NC(=O)c2ccc(OC)c(OC)c2)n(C)c(=O)n3C)CC1
- IC50 (H9c2): 26.8 µM (active)

SMILES: O=C(NCc1nnc(O)c2ccccc12)C1CC(=O)N(c2ccccc2)C1 (stereo not given)
- IC50 (H9c2): > 79 µM (inactive)

SMILES: CCOC(=O)C1CCN(Cc2ccc(-c3ccccc3)cc2)CC1
- IC50 [1]: 151 µM (active)

SMILES: Cc1noc(C)c1CSCC(=O)Oc1ccc(N(C)S(=O)(=O)c2ccccc2)cc1
- EC50 (Protein RecA): 22.3 µM (active)
- AC50 [2]: 4.1 µM (active)

SMILES: CN(C)/N=C/c1ccc(N2CCOCC2)cc1
- IC50 [1]: 51.2 µM (active)

SMILES: COc1cccc(COC(=O)c2sc3nc4n(c(=O)c3c2C)CCC4)c1OC
- IC50 (cells): 4.36 µM (active)
- EC50 (Streptococcus): 8.48 µM (active)
- EC50 [5]: 1.6 µM (active)

SMILES: CCN(CC)C(=O)CC(c1ccc(N(C)C)cc1)c1c(OC)cc(OC)c2ccc(=O)oc12 (stereo not given)
- AC50 [6]: 3.89 µM (active)

SMILES: CCN(CC)S(=O)(=O)c1ccc(C)c(NC(=O)CN2CCN(C)CC2)c1
- IC50 [1]: 118 µM (active)

SMILES: COc1cccc(N2CC(C(=O)Nc3nnc(SCC(=O)c4ccccc4)s3)CC2=O)c1 (stereo not given)
- EC50 (Protein RecA): > 380 µM (inactive)
- AC50 [2]: 181 µM (active)

SMILES: COc1cccc(Nc2c([N+](=O)[O-])cncc2[N+](=O)[O-])c1
- EC50 (Protein RecA): 8.86 µM (active)
- AC50 [2]: 12.9 µM (active)

SMILES: COCCN(Cc1nc(O)c2ccccc2n1)C(=O)COc1ccccc1-c1ccccc1
- CC50 (Vero): > 25 µM (active)

SMILES: O=C(N/N=C\c1ccc(-c2ccccc2[N+](=O)[O-])o1)C1COc2ccccc2O1 (stereo not given)
- EC50 (Protein RecA): 12.4 µM (active)
- AC50 [2]: 7.94 µM (active)

SMILES: CCCn1c(SC(C(=O)Nc2cccc(OC)c2)c2ccccc2)nc2ccccc2c1=O (stereo not given)
- IC50 (H9c2): > 79 µM (inactive)

SMILES: Cc1cc(C(=O)Nc2nnc(-c3ccccc3)s2)no1
- AC50 [6]: 18.9 µM (active)

SMILES: CCN1CCN(CCOc2ccc(Br)cc2C)CC1
- IC50 [1]: 73.2 µM (active)

SMILES: CC1(C)CC2(C)OC(=N)C1(C#N)C2(C#N)C#N (stereo not given)
- EC50 (Protein RecA): 12.3 µM (active)
- AC50 [2]: 70.3 µM (active)

SMILES: O=C(/C=C/NNC(=O)c1ccccc1)c1ccc(Br)cc1
- EC50 [4]: 39.1 µM (active)
- IC50 (H9c2): 12.4 µM (active)

SMILES: O=C(Oc1ccc2c(-c3ccccc3)cc(=O)oc2c1)C1CCCCC1
- IC50 (H9c2): 34.3 µM (inactive)

SMILES: Cc1n[nH]c2c1C(c1cnn(C)c1)C(C#N)=C(N)O2 (stereo not given)
- EC50 (Protein RecA): 3.67 µM (active)
- AC50 [2]: 14.2 µM (active)

SMILES: CCc1ccc(/C=N/NC(=O)Cc2cccn2C)cc1
- AC50 [6]: 13.4 µM (active)

SMILES: COC(=O)c1ccc(N)c(NC=C2C(=O)CC(C)(C)CC2=O)c1
- IC50 (H9c2): 6.51 µM (active)

SMILES: Cc1ccc(NC(=O)CSc2ncnc3ccccc23)cc1S(=O)(=O)N1CCCCCC1
- EC50 (Protein RecA): 2.66 µM (active)
- AC50 [2]: 20.1 µM (active)

SMILES: CCOc1cc2c(cc1O)C(=NOC)CC1C2CCC2(C)C(O)CCC12 (stereo not given)
- CC50 (Vero): 5.94 µM (active)

SMILES: Nc1nc2ccc(-c3nc4ccccc4o3)cc2s1
- AC50 [6]: 2.44 µM (active)

SMILES: COc1ccc(OC(=O)COc2cc(C)ccc2C)cc1
- IC50 [1]: 37.7 µM (active)

SMILES: COc1ccc(NC(=O)N(C)C[C@H]2Oc3c(NC(=O)Nc4ccc(C(F)(F)F)cc4)cccc3C(=O)N([C@H](C)CO)C[C@@H]2C)cc1
- IC50 (H9c2): > 79 µM (inactive)

SMILES: O=P1(c2ccccc2)Nc2ccccc2N1c1ccccc1 (stereo not given)
- IC50 [1]: 28.8 µM (active)

SMILES: O=C1/C(=C/c2ccccc2F)SC(=S)N1CCC(=O)N1CCCCC1CCO (stereo not given)
- CC50 (Vero): 25 µM (active)

SMILES: CC(=O)Nc1ccc(NC(=O)C(C)OC(=O)COc2ccc(Nc3ccccc3)cc2)cc1 (stereo not given)
- IC50 [1]: 111 µM (active)

SMILES: COc1ccc(S(=O)(=O)N/N=C(/C)c2ccncc2)c(OC)c1
- AC50 [6]: 0.832 µM (active)

SMILES: CC(=O)Oc1c(-c2ccco2)oc2ccccc2c1=O
- IC50 (cells): 23.2 µM (active)

SMILES: O=C(COC(=O)Cc1nnc(O)c2ccccc12)Nc1ncc(Cl)cc1Cl
- IC50 (H9c2): 15.4 µM (active)

SMILES: CCC1(C)Cc2c(sc3nc(NN)n(C)c(=O)c23)CO1 (stereo not given)
- IC50 (H9c2): > 79 µM (inactive)
